Here are results for 16 compounds from US5332739A, “Pyrimidinedione derivatives and antiarrhythmic agents containing same” (Mitsui Toatsu Chemicals, Incorporated, priority 1990, dated 1994).

Where a name gives a salt, the structure may show the parent alone.

The nature of data set [1]: Toxicity Test 1 (oral, mortality 24 hours after administration). The following applies: mouse, in vivo, 300 mg/kg (P.O), 2 to 4 mice per group, read-out: Mortality Rate (%). The method, then: Each of the compounds prepared in the above-mentioned examples shown in Table B was administered into a mouse (ddy strain, male). In each case, the administration was effected by oral administration in a dose of 300 mg/kg.
A mortality rate (number of specimens: one group=2 to 4 mice) of the mice 24 hours after the administration was calculated, and the results are set forth in Table B.

The test system of data set [2] is Purkinje fiber of the right ventricular free wall. In words: Influence on Myocardial Action Potential Duration Time (APD75). The data set is classed as cell-based, hybrid adult dog. Particulars: Canis lupus familiaris, 20 min, 20 minutes' incubation, 1 Hz, 37° C.; for percent prolongation of action potential duration (APD75) at 1 µg/mL: Dose 1.0 (μg, ml); for percent prolongation of action potential duration (APD75) at 3 µg/mL: Dose 3.0 (μg, ml); for percent prolongation of action potential duration (APD75) at 10 µg/mL: Dose 10.0 (μg, ml). The procedure:
To a hybrid adult dog, 30 mg/kg of pentobarbital was administered through a vein, and after being anesthetized, the heart was removed. Afterward, the right ventricular free wall of the heart was cut and taken out in a Tyrode solution.
The taken right ventricular free wall was fixed in an incubator at 37° C., and a nutritional solution (20 ml of the Tyrode solution) was refluxed.
In this isolated condition, myocardial action potential duration times (APD75) were measured before and after the administration of the respective compounds prepared in the above examples in Table A and d-sotalol as a control medicine, and APD75 (%) was calculated from the measured results in accordance with the formula: […]
A: APD75 before administration
B: APD75 after administration
Here, APD75 was measured as follows: A field stimulation of 1 Hz was given to the right ventricular free wall, and any variation of an action potential was depicted on an oscilloscope via a glass microelectrode (10 to 20 M.OMEGA.) thrust into a Purkinje fiber of the free wall and via an amplifier. Afterward, a waveform on the oscilloscope was analyzed by the use of a computer, and the time of from a point of the action potential generation to a point of 75% repolarization was measured. This measured time was regarded as the myocardial action potential duration time (APD75).
The compounds and d-sotalol shown in Table A were separately added to the refluxing nutritional solution (20 ml), and after 20 minutes' incubation, APD75 after the administration was calculated from the variation of the myocardial action potential duration time.
Incidentally, this test was carried out in accordance with a Sato et al's method [H. Sato, K. Hashimoto, Arzneimeittel Forschung, 34 (1), 3a, 376-380 (1984)].

Data set [3] relates to ventricular muscle (right ventricle). The experiment in a line: Influence on Ventricular Muscle Refractory Period (ERP). The class given is in vivo, mongrel adult dog. The following applies: Canis lupus familiaris, iv, anesthetized dog, read-out: ERP (%; extensibility of refractory period); for change in vivo at 0.1 mg/kg: Dose 0.1 mg/kg i.v.; for change in vivo at 0.3 mg/kg: Dose 0.3 mg/kg i.v.; for change in vivo at 1 mg/kg: Dose 1.0 mg/kg i.v.; for change in vivo at 3 mg/kg: Dose 3.0 mg/kg i.v. The method, then:
Refractory periods were measured in the following manner before and after each of the compounds and d-sotalol shown an Table A was separately administered to a vein or a duodenum, and ERP (%; extensibility of refractory period) was calculated from the measured values in accordance with the following formula: […]
W: Refractory period after administration
Y: Refractory period before administration
To a mongrel adult dog, 30 mg/kg of pentobarbital was administered intravenously, and after being anesthetized, a pair of silver-silver chloride electrodes separated by 3 mm was sewn on an opened right ventricule, and electrical stimulation was given at an interval of 400 msec at a duration time of 4 msec under a current twice as much as the threshold. Afterward, a small amount of alcohol was injected into a sinus artery in order to extinguish a pacemaker activity, and the ventricular refractory period (ERP) was measured under ventricule pacing.
That is, 1 train comprised 10 stimulations, and an interval between two of the trains was usually 400 msec. At the time of the refractory period measurement, however, the above interval was shortened every 10 smec, and the interval between the trains at the time when reaction to the first stimulation of the train disappeared was regarded as the refractory period.
In this case, the electrical stimulation was fed in accordance with a program by a heart stimulation device (Diamedical Co., Ltd.; DHM-226-3).

For the compound `CC(=O)c1ccccc1CCN1CCN(c2cc(=O)n(C)c(=O)n2C)CC1` [Compound 85, 1,3-dimethyl-6-[4-(2-[2-acetylphenyl]ethyl)piperazin-1-yl]-2,4(1H,3H)-pyrimidinedione.oxalate], the mortality at 24 h in data set [1] is 0%.
On to `CC(=O)c1ccc(OCCCN2CCN(c3cc(=O)n(C)c(=O)n3C)CC2)cc1` [Compound 4], for which, in data set [1], the mortality at 24 h was determined as 0%. Moreover, in data set [2], the percent prolongation of action potential duration (APD75) at 1 µg/mL is 5% and the percent prolongation of action potential duration (APD75) at 3 µg/mL was 8%.
Regarding `CC(=O)c1cc(Cl)ccc1OCCCN1CCN(c2cc(=O)n(C)c(=O)n2C)CC1` [Compound 45], in data set [1], the mortality at 24 h was 50%. In data set [2], this compound gave a percent prolongation of action potential duration (APD75) at 1 µg/mL of 42%, a percent prolongation of action potential duration (APD75) at 3 µg/mL of 71% and a percent prolongation of action potential duration (APD75) at 10 µg/mL of 75%. For the same compound, in data set [3], the change in vivo at 0.1 mg/kg worked out at 0%, the change in vivo at 0.3 mg/kg worked out at 2.4%, the change in vivo at 1 mg/kg was determined as 9.5% and the change in vivo at 3 mg/kg is 18.6%.
Consider `Cn1c(N2CCN(CCCOc3ccc(S(C)(=O)=O)cc3)CC2)cc(=O)n(C)c1=O` [Compound 7], for which the mortality at 24 h in data set [1] was 0%.
Still for that read-out and setting: with `Cn1c(N2CCN(CCCOc3ccc(C(F)(F)F)cc3)CC2)cc(=O)n(C)c1=O` [Compound 2] the figure was 50%.
As to `Cn1c(N2CCN(CCCCOc3ccc(Cl)cc3)CC2)cc(=O)n(C)c1=O` [Compound 82, 6-[4-(4-[4-chlorophenoxy]butyl)piperazin-1-yl]-1,3-dimethyl-2,4(1H,3H)-pyrimidinedione.hydrochloride], the mortality at 24 h in data set [1] amounted to 0%. In data set [2], this compound had a percent prolongation of action potential duration (APD75) at 1 µg/mL of 16%, a percent prolongation of action potential duration (APD75) at 3 µg/mL of 28% and a percent prolongation of action potential duration (APD75) at 10 µg/mL of 43%.
In data set [2], `CCN(CCCOc1ccc(C(=O)c2ccccc2)cc1)CCNc1cc(=O)n(C)c(=O)n1C` [Compound 117, 1,3-dimethyl-6-[2-(N-ethyl-3-[4-benzoylphenoxy]propylamino)ethylamino]-2,4(1H,3H)-pyrimidinedione.oxalate] displayed a percent prolongation of action potential duration (APD75) at 1 µg/mL of 17% and a percent prolongation of action potential duration (APD75) at 3 µg/mL of 23%. In data set [3], the change in vivo at 0.1 mg/kg is 3.2%, the change in vivo at 0.3 mg/kg was 3.2%, the change in vivo at 1 mg/kg is 6.9% and the change in vivo at 3 mg/kg was 16.1%.
On to `Cn1c(N2CCN(CCCc3ccccc3)CC2)cc(=O)n(C)c1=O` [Compound 89, 1,3-dimethyl-6-[4-(3-phenylpropyl)piperazin-1-yl]-2,4(1H,3H)-pyrimidinedione.hydrochloride], for which, in data set [2], the percent prolongation of action potential duration (APD75) at 1 µg/mL is 15%, the percent prolongation of action potential duration (APD75) at 3 µg/mL worked out at 26% and the percent prolongation of action potential duration (APD75) at 10 µg/mL was determined as 31%. Moreover, in data set [3], the change in vivo at 0.1 mg/kg is 0%, the change in vivo at 0.3 mg/kg came to 5.7%, the change in vivo at 1 mg/kg was 9.7% and the change in vivo at 3 mg/kg came to 14%.
As for `CC(C)NC[C@@H](O)c1ccc(NS(C)(=O)=O)cc1` [d-sotalol, reference compound], the percent prolongation of action potential duration (APD75) at 0.3 µg/mL in data set [2] (Dose 0.3 (μg, ml)) came to 0%. In data set [2], this compound showed a percent prolongation of action potential duration (APD75) at 1 µg/mL of 3%, a percent prolongation of action potential duration (APD75) at 3 µg/mL of 7.4% and a percent prolongation of action potential duration (APD75) at 10 µg/mL of 15.8%. Besides, in data set [3], the change in vivo at 0.1 mg/kg worked out at 1.7%, the change in vivo at 0.3 mg/kg was 6.7%, the change in vivo at 1 mg/kg was 8.7% and the change in vivo at 3 mg/kg worked out at 15.5%.
In data set [2], `CC(=O)Nc1ccccc1OCCCN1CCN(c2cc(=O)n(C)c(=O)n2C)CC1` [Compound 18] came in with a percent prolongation of action potential duration (APD75) at 3 µg/mL of 11% and a percent prolongation of action potential duration (APD75) at 10 µg/mL of 22%. In data set [3], the change in vivo at 0.3 mg/kg came to 6.3% and the change in vivo at 1 mg/kg is 12.5%.
In data set [2], `Cn1c(N2CCN(CCc3ccc(Cl)cc3)CC2)cc(=O)n(C)c1=O` [Compound 91, 1,3-dimethyl-6-[4-(2-[4-chlorophenyl]-ethyl)piperazin-1-yl]-2,4(1H,3H)-pyrimidinedione.hydrochloride] had a percent prolongation of action potential duration (APD75) at 1 µg/mL of 13% and a percent prolongation of action potential duration (APD75) at 3 µg/mL of 25%. Also, in data set [3], the change in vivo at 0.1 mg/kg came out at 3.5%, the change in vivo at 0.3 mg/kg was 6.5% and the change in vivo at 1 mg/kg was found to be 14.5%.
As for `Cn1c(N2CCN(CCCOc3ccccc3N=[N+]=[N-])CC2)cc(=O)n(C)c1=O` [Compound 36], in data set [2], the percent prolongation of action potential duration (APD75) at 3 µg/mL worked out at 17%. Further, in data set [3], the change in vivo at 0.1 mg/kg is 0%, the change in vivo at 0.3 mg/kg is 7.1%, the change in vivo at 1 mg/kg amounted to 7.1% and the change in vivo at 3 mg/kg was 14.3%.
Take `Cn1c(N2CCN(CCCOc3ccccc3C#N)CC2)cc(=O)n(C)c1=O` [Compound 16]: in data set [2], the percent prolongation of action potential duration (APD75) at 1 µg/mL turned out to be 6%, the percent prolongation of action potential duration (APD75) at 3 µg/mL amounted to 14% and the percent prolongation of action potential duration (APD75) at 10 µg/mL turned out to be 23%. Also, in data set [3], the change in vivo at 0.1 mg/kg was found to be 0%, the change in vivo at 0.3 mg/kg was found to be 0%, the change in vivo at 1 mg/kg is 6.7% and the change in vivo at 3 mg/kg was determined as 10%.
`Cn1c(N2CCN(CCCOc3cccc(C#N)c3)CC2)cc(=O)n(C)c1=O` [Compound 12]: in data set [2], the percent prolongation of action potential duration (APD75) at 1 µg/mL came to 4%, the percent prolongation of action potential duration (APD75) at 3 µg/mL turned out to be 11% and the percent prolongation of action potential duration (APD75) at 10 µg/mL came to 28%. In data set [3], the change in vivo at 0.1 mg/kg turned out to be 0%, the change in vivo at 0.3 mg/kg came out at 2.1%, the change in vivo at 1 mg/kg turned out to be 4.3% and the change in vivo at 3 mg/kg was determined as 17%.
In data set [2], `CC(=O)c1ccccc1OCCCN1CCN(c2cc(=O)n(C)c(=O)n2C)CC1` [Compound 17, 1,3-dimethyl-6-[4-(3-[2-acetylphenoxy)propyl)piperazin-1-yl]-2,4(1H,3H)-pyrimidinedione] showed a percent prolongation of action potential duration (APD75) at 1 µg/mL of 28%, a percent prolongation of action potential duration (APD75) at 3 µg/mL of 43% and a percent prolongation of action potential duration (APD75) at 10 µg/mL of 59%. In addition, in data set [3], the change in vivo at 0.1 mg/kg came to 3.5%, the change in vivo at 0.3 mg/kg is 8.3%, the change in vivo at 1 mg/kg is 13.5% and the change in vivo at 3 mg/kg was determined as 17.3%.
In the case of `Cn1c(N2CCN(CCCOc3ccccc3C(=O)CCc3ccccc3)CC2)cc(=O)n(C)c1=O` [Compound 31], in data set [2], the percent prolongation of action potential duration (APD75) at 1 µg/mL stood at 13% and the percent prolongation of action potential duration (APD75) at 3 µg/mL turned out to be 16%. In data set [3], the change in vivo at 0.1 mg/kg is 0%, the change in vivo at 0.3 mg/kg was determined as 0%, the change in vivo at 1 mg/kg worked out at 6.3% and the change in vivo at 3 mg/kg turned out to be 12.9%.

The mortality is the share of the test organisms that died.
